Reference: ChEMBL document CHEMBL1201862, “PubChem BioAssay data set” (2004)
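Five compound concentrations were applied to cells in 96-well plates for 48 hours; endpoints were derived by simple linear interpolation of the resulting dose-response curve. GI50 is the concentration that inhibits growth by half.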 Calls of active or inactive are those of the source. Rule as the data show it: active = GI50 up to about 1.1 µM and inactive = higher.

Key:
Assay in all cases: NCI tumour cell line growth inhibition, 48 h
[1] = test system: SF-539
[2] = test system: OVCAR-5
[3] = test system: 786-0
[4] = test system: UO-31
[5] = test system: U-251
[6] = test system: HL-60
[7] = test system: A498
[8] = test system: UACC-257
[9] = test system: LOX IMVI
[10] = test system: SNB-75
[11] = test system: SK-OV-3
[12] = test system: UACC-62
[13] = test system: HCT-116
[14] = test system: SR
[15] = test system: HCT-15
[16] = test system: ACHN
[17] = test system: RXF 393

Measured: GI50

O=C1Cc2ccccc2N1c1c(Cl)cccc1Cl
inactive: [1] 81.3 µM | [2] > 100 µM | [3] 92.5 µM | [4] 24.3 µM | [5] 63.7 µM | [6] 15.3 µM | [7] 50.8 µM | [8] 39.6 µM | [9] 49.5 µM | [10] 27.7 µM | [12] 40.2 µM | [13] 45.6 µM | [14] 25.4 µM | [16] 70.1 µM
46.9 µM: [15]
active: [11] 0.424 µM

CC1CCN(c2cc(-c3cc4ccccc4o3)oc(=O)c2C#N)CC1
> 100 µM: [15]
inactive: [1] 89.1 µM | [2] > 100 µM | [4] > 100 µM | [5] > 100 µM | [6] 65.8 µM | [17] 45.7 µM | [7] > 100 µM | [8] > 100 µM | [9] > 100 µM | [10] > 100 µM | [13] > 100 µM | [14] > 100 µM | [16] > 100 µM

COc1ccc(NC(=O)C(=O)Cc2ccc([N+](=O)[O-])c([N+](=O)[O-])c2CC(=O)C(=O)Nc2ccc(OC)cc2OC)c(OC)c1
inactive: [2] > 100 µM | [3] > 100 µM | [4] > 100 µM | [5] > 100 µM | [6] > 100 µM | [17] > 100 µM | [7] > 100 µM | [8] > 100 µM | [9] > 100 µM | [10] 96.2 µM | [11] > 100 µM | [12] > 100 µM | [13] > 100 µM | [14] > 100 µM | [16] > 100 µM
> 100 µM: [15]

N#Cc1ccc([N+](=O)[O-])cc1NC(N)=S
> 100 µM: [15]
inactive: [1] > 100 µM | [2] > 100 µM | [4] > 100 µM | [5] > 100 µM | [7] > 100 µM | [10] > 100 µM | [11] > 100 µM | [13] > 100 µM | [14] > 100 µM

Cc1cccc(NC(=O)C(=O)C(C(=O)c2ccccc2F)C2OC(=O)c3ccccc32)c1Cl (centres undefined)
22.4 µM: [15]
inactive: [1] 18.2 µM | [2] 60 µM | [4] 37.2 µM | [5] 14.5 µM | [6] 20.1 µM | [7] 60.7 µM | [8] 51.4 µM | [9] 17.7 µM | [10] 20.5 µM | [11] 37.2 µM | [12] 23.2 µM | [13] 20.3 µM | [14] 26.5 µM | [16] 53.1 µM

CC/C=C\C/C=C\C/C=C\CCCCCCCC(=O)OCC
inactive: [1] > 100 µM | [2] > 100 µM | [3] > 100 µM | [4] > 100 µM | [5] > 100 µM | [6] > 100 µM | [7] > 100 µM | [8] > 100 µM | [9] 42.6 µM | [10] > 100 µM | [11] > 100 µM | [12] > 100 µM | [13] > 100 µM | [14] > 100 µM | [16] > 100 µM

CCc1cccc(CC)c1NC1=CC(=O)C(=O)c2ccccc21
inactive: [1] 19.5 µM | [2] 17.1 µM | [3] 18.9 µM | [4] 18.7 µM | [5] 15.3 µM | [6] > 100 µM | [17] 23.9 µM | [7] 22.3 µM | [8] 15 µM | [9] 9.84 µM | [10] 22.8 µM | [11] 31.6 µM | [12] 14 µM | [13] 18.4 µM | [14] 29.9 µM | [16] 13.1 µM
10.3 µM: [15]

c1ccc(N2CCN(CCCN3CCc4c([nH]c5ccccc45)C3c3cccnc3)CC2)cc1 (centres undefined)
inactive: [1] 83.9 µM | [2] > 100 µM | [3] 33.9 µM | [4] > 100 µM | [5] 19.1 µM | [6] 20 µM | [17] > 100 µM | [7] > 100 µM | [8] 24.6 µM | [9] 41.2 µM | [10] > 100 µM | [11] > 100 µM | [12] > 100 µM | [13] 35.2 µM | [14] 27 µM | [16] > 92.9 µM
56 µM: [15]

COC(=O)CCC(=O)CC(=O)C1=NS(=O)(=O)c2nc(S(N)(=O)=O)c(Cl)cc2N1
> 100 µM: [15]
inactive: [1] > 100 µM | [2] > 100 µM | [3] > 10 µM | [4] > 100 µM | [5] > 100 µM | [6] > 100 µM | [17] > 100 µM | [7] > 100 µM | [8] > 100 µM | [9] 70.5 µM | [10] > 100 µM | [11] > 100 µM | [12] > 100 µM | [13] > 100 µM | [14] > 100 µM | [16] > 100 µM

Cc1ccc(N2C(=O)N(c3ccc(C)cc3)C3(SC=NN3C)C2=O)cc1 (centres undefined)
inactive: [1] > 100 µM | [3] > 100 µM | [4] 42 µM | [5] > 100 µM | [6] 22.6 µM | [17] 59.6 µM | [7] 73.1 µM | [8] 38.6 µM | [9] 32.3 µM | [10] > 100 µM | [11] > 100 µM | [12] 74 µM | [13] 46.6 µM | [14] 58.3 µM | [16] 65.6 µM

C/C(=N\NC(=S)Nc1ccc(C(=O)O)cc1)c1ccccn1
26.5 µM: [15]
inactive: [1] 18.3 µM | [2] 21.3 µM | [3] 17.4 µM | [4] 11.6 µM | [5] 24.2 µM | [6] 20.7 µM | [17] 35 µM | [7] 25 µM | [8] 25.4 µM | [9] 16.7 µM | [10] 20.5 µM | [12] 5.04 µM | [13] 23.5 µM | [14] 12.2 µM | [16] 16.7 µM

CC(C)COC(=O)N1N=NC2C3CC(=O)C(O3)C21 (centres undefined)
inactive: [1] > 100 µM | [2] > 100 µM | [3] > 100 µM | [4] > 100 µM | [5] > 100 µM | [17] > 100 µM | [7] > 100 µM | [8] > 100 µM | [9] > 100 µM | [10] > 100 µM | [11] > 100 µM | [12] > 100 µM | [13] > 100 µM | [14] > 100 µM | [16] > 100 µM
> 100 µM: [15]

CO/C(=N\N=C\c1ccc(Cl)cc1)c1ccncc1
inactive: [1] > 100 µM | [2] > 100 µM | [4] > 100 µM | [5] > 100 µM | [6] > 100 µM | [17] > 100 µM | [7] > 100 µM | [8] > 100 µM | [10] 63 µM | [11] > 100 µM | [12] > 100 µM | [13] > 100 µM | [14] > 100 µM | [16] > 100 µM
> 100 µM: [15]
